According to patent US10770169B2, “Method of providing a treatment to a subject based on a dynamic pathway map” (THE REGENTS OF THE UNIVERSITY OF CALIFORNIA, priority 2010, dated 2020):

Tested on: panel of 55 breast cancer cell lines
Experiment: Cell growth inhibition assay (Cell Titer Glo, 72 h, 9 doses; GI50, TGI, LC50)
Type: cell-based, human
Details: value is the negative log10 of mol/L

CC(C)(C)c1cc(C=C(C#N)C#N)cc(Br)c1O [AG1024]
GI50 (HCC70 cell line, censored GI50 values): 5.21 | GI50 (HCC202 cell line, censored GI50 values): 4.92 | GI50 (HCC1419 cell line, censored GI50 values): 4.70 | GI50 (HCC1428 cell line, censored GI50 values): 5.05 | GI50 (HCC2185 cell line, censored GI50 values): 5.11 | GI50 (HCC3153 cell line, censored GI50 values): 5.11 | GI50 (MDAMB134VI cell line, censored GI50 values): 4.69 | GI50 (MDAMB175VII cell line, censored GI50 values): 4.82 | GI50 (MDAMB361 cell line, censored GI50 values): 4.69 | GI50 (SUM52PE cell line, censored GI50 values): 5.45 | GI50 (SUM185PE cell line, censored GI50 values): 5.57 | GI50 (SUM225CWN cell line, censored GI50 values): 5.03 | GI50 (SUM1315MO2 cell line, censored GI50 values): 5.17 | GI50 (T47D cell line, censored GI50 values): 4.68 | GI50 (UACC893 cell line, censored GI50 values): 4.75 | GI50 (cell line AU565): 4.48 | GI50 (cell line BT20): 4.48 | GI50 (cell line BT474): 4.48 | GI50 (cell line BT483): 4.48 | GI50 (cell line BT549): 4.48 | GI50 (cell line CAMA1): 4.48 | GI50 (cell line HCC38): 4.48 | GI50 (cell line HCC70): 5.21 | GI50 (cell line HCC202): 4.92 | GI50 (cell line HCC1143): 4.58 | GI50 (cell line HCC1187): 4.48 | GI50 (cell line HCC1395): 4.48 | GI50 (cell line HCC1419): 4.70 | GI50 (cell line HCC1428): 5.05 | GI50 (cell line HCC1500): 4.58 | GI50 (cell line HCC1806): 4.48 | GI50 (cell line HCC1937): 4.48 | GI50 (cell line HCC1954): 4.50 | GI50 (cell line HCC2185): 5.11 | GI50 (cell line HCC3153): 5.11 | GI50 (cell line LY2): 4.48 | GI50 (cell line MCF7): 4.48 | GI50 (cell line MDAMB134V): 4.69 | GI50 (cell line MDAMB157): 4.48 | GI50 (cell line MDAMB175V): 4.82 | GI50 (cell line MDAMB361): 4.69 | GI50 (cell line MDAMB415): 4.48 | GI50 (cell line MDAMB436): 4.48 | GI50 (cell line MDAMB453): 4.51 | GI50 (cell line MDAMB468): 4.48 | GI50 (cell line SKBR3): 4.48 | GI50 (cell line SUM52PE): 5.45 | GI50 (cell line SUM149PT): 4.48 | GI50 (cell line SUM185PE): 5.57 | GI50 (cell line SUM225CWN): 5.03 | GI50 (cell line SUM1315MO): 5.17 | GI50 (cell line T47D): 4.68 | GI50 (cell line UACC812): 4.48 | GI50 (cell line UACC893): 4.75 | GI50 (cell line ZR75B): 4.48 | GI50 (cell line ZR751): 4.52
